Measurements as given in patent US6117857A, “Pharmaceutical composition” (priority 1995, dated 2000).
Counter-ions that a name gives are not always drawn.

Experiments:
[1] = cited from earlier work
[2] = tested on: recurrent herpes simplex virus infections; settings: cited from earlier work; for Healing time: topical treatment, recurrent cutaneous virus diseases
[3] = tested on: reverse transcriptase of HIV; settings: cited from earlier work
[4] = Systemic uptake of topically applied foscarnet (previous research); type: in vivo; settings: about 100 mg of 5% foscarnet cream (about 5 mg foscarnet)
[5] = topical, 3% formulation; cited from earlier work
Kaposi's sarcoma = settings: intravenous treatment; cited from earlier work
human herpesvirus = settings: in vitro; cited from earlier work
[6] = Test 5. Cytotoxicity of liposomal foscarnet (PBMC growth); type: cell-based; settings: human PBMC, cell counter, read-out: Cytotoxicity, CIC50 (cell growth inhibitory concentration)
Experimental: Liposomes were prepared according to Formulation 7 above and the cytotoxic effects thereof tested using human peripheral blood mononuclear cells (PBMC) as previously described (method according to Palmer, S., et al., Aids Research and Human Retroviruses, Vol.11, No. 10, 1995 with some modifications). The PBMCs were incubated with the drugs in medium for 72 h and cell growth was measured in an automatic cell counter. Above 10 000 μM the liposomes themselves interfered with the cell counting.

[7] = phospholipid liposomes; WO 89/05152; cited from earlier work
HIV = settings: in vitro; cited from earlier work
[8] = tested on: herpes simplex virus type 1 (strain R39); test: Test 4. Antiviral effect of liposomal foscarnet on HSV-1 (HL cells, ELISA); type: cell-based, HSV-1; human lung fibroblast (HL) cells; settings: Human alphaherpesvirus 1, 24 h, read-out: Antiviral effect on HSV-1, IC50
Experimental: Liposomes were constructed according to Formulations 7 and 8. The liposomes were not purified from the surrounding foscarnet-containing medium and antiviral effects by the liposomes might therefore be underestimated by cell culture assays. Antiviral effects of liposomes against herpes simplex virus type 1 were tested using previously published methods (Abele, G., et al., Antiviral Chemistry & Chemotherapy (1991) 2(3), 163-169) with some modifications. Confluent human lung fibroblast (HL) cells were infected with HSV-1 (strain R39) for one hour at 37° C. The virus inoculum was removed, and various dilutions of foscarnet-loaded liposomes, empty liposomes or foscarnet in medium were added. After 24 h the cells were lysed by addition of Triton X100, subjected to a freeze-thaw cycle, and the cell lysates tested for viral replication in an HSV-1-specific ELISA. The results obtained at a virus dilution of 1:500 and an incubation time of 24 h are stated in the following Table 4.

## Nc1nc2c(ncn2COCCO)c(=O)[nH]1 [acyclovir, 9-[(2-hydroxyethoxy)methyl]guanine]
[1]; human, in vivo
  Adverse effects of therapy: very few adverse effects
[2]
  Healing time: only reduced by approximately one day

## CC(=O)OCC(CCn1cnc2cnc(N)nc21)COC(C)=O [famciclovir]
[2]
  Healing time: only reduced by approximately one day

## O=C(O)P(=O)(O)O [foscarnet, trisodium salt of phosphonoformic acid, hexahydrate]
[3]
  Inhibition of reverse transcriptase of HIV (in words): inhibits the reverse transcriptase of HIV
[4]
  Amount entering the systemic circulation per application: ≤ 0.25 mg per application
[5]
  Irritation of mucous membranes or the skin: known to cause irritation of mucous membranes or the skin
[1]; intravenous, CMV retinitis and acyclovir-resistant HSV in AIDS patients
  Side-effect of intravenous treatment: renal function impairment
Kaposi's sarcoma
  Response of Kaposi's sarcoma patients: some patients have responded
Human herpesvirus
  Activity against human herpesvirus (in words): proven activity against all human herpesvirus in vitro
[6]
  CC50 at 72 h: 2460 µM
[2]; topical, conventional cream, recurrent HSV, immunocompetent patients
  Healing time of lesions: shortened by approximately one day
[7]
  Intracellular antiviral activity in liposome-encapsulated form: several-fold higher intracellular antiviral activity
HIV
  Antiviral activity against replication of HIV (in words): shows antiviral activity against the replication of HIV in vitro
[8]
  IC50: 151 µM

## Nc1nc2c(ncn2CCC(CO)CO)c(=O)[nH]1 [penciclovir, 9-(4-hydroxy-3-hydroxymethylbut-1-yl)-guanine]
[2]
  Healing time: only reduced by approximately one day

## CC(C)[C@H](N)C(=O)OCCOCn1cnc2c(=O)[nH]c(N)nc21 [valaciclovir, L-valyl acyclovir]
[2]
  Healing time: only reduced by approximately one day
